Results from PMC9233675, “Ru(II) photocages enable precise control over enzyme activity with red light” (Nature Communications, 2022).
Values joined by “and” are separate entries in the source; they are usually repeats but may differ in a detail not shown here. Equal values may be shown once. Read-outs that look alike come from different tables or passages of the source.

Columns and labels:
[1] = Irradiation-induced 1O2 production (Singlet Oxygen Sensor Green assay); format: physicochemical; conditions: sheet S27; triplicate columns; DMSO control about 0.9
Source text: Some Ru(II) complexes can generate singlet oxygen when photoexcited, a feature that has been applied to the selective photoinactivation of proteins. In this approach, the Ru(II) system is conjugated to a peptide that is a specific ligand for the protein target; binding of the peptide to the protein ensures close proximity of the Ru(II) center and thus, upon photoexcitation, the generation of a high local concentration of singlet oxygen. […] As very little of this reactive oxygen species was generated, inactivation of the CYP enzymes by this process appears unlikely.
Supplementary Figure 27. Determination of irradiation-induced 1O2 production with 660 nm light (1 hr = 58.7 J/cm2)
using the Singlet Oxygen Sensor Green assay. […]

[2] = Kinetic solubility by UV/Vis; format: physicochemical; conditions: Opti-MEM with 2% fetal bovine serum, room temperature, 3 hours
Description: Kinetic solubility was measured by UV/Vis. In this experiment, 14 μL of 10 mM DMSO stocks of complexes 4–6 were diluted in 700 μL of Opti-MEM™ with 2% fet al bovine serum and kept at room temperature for 3 hours. The solutions were then filtered using syringe-driven filters (FV12S) and concentrations were measured by UV/vis absorbance in a 96-well plate in triplicate. […]
4. Simulate in the NPT ensemble using a Berendsen thermostat and a Berendsen barostat with: […]
5. Simulate in the NPT ensemble using a Berendsen thermostat and a Berendsen barostat with: […]
6. Simulate in the NPT ensemble using a Berendsen thermostat and a Berendsen barostat with: […]

CYP1B1 = molecular target: T1, CYP1B1 (Homo sapiens, UniProt Q16678); test: In cell activity assay for CYP1B1 (7-ethoxyresorufin conversion, HEK293 T-Rex cells); conditions: for % Enzyme Activity red light / % Enzyme Activity: CYP1B1; for % Enzyme Activity red light: 660 nm light (58.7 J/cm2); for % Enzyme Activity: dark; for IC50: n = 3
T1 sequence (Q16678 1-543): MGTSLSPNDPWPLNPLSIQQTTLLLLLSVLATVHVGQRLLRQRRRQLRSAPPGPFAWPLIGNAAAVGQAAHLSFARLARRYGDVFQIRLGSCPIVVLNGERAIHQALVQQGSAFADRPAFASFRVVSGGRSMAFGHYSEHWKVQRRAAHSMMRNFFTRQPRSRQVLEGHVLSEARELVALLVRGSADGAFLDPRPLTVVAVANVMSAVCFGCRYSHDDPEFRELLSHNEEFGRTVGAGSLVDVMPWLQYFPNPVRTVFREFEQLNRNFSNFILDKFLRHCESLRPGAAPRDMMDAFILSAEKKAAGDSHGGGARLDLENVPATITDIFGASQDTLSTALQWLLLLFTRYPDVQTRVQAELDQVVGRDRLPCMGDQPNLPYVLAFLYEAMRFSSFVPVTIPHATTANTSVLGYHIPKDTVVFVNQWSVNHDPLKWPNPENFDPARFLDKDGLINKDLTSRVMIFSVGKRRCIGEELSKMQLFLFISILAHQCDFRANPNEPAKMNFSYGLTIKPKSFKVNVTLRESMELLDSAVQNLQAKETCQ
Source text: To rigorously assess the activity of inhibitors under biologically relevant conditions, an assay was developed for screening of CYP1B1 activity in live cells.
A stable HEK cell line was created with CYP1B1 expression under the control of tetracycline to facilitate regulated and titratable expression (see the Methods section for more details). […] The fluorogenic substrate, 7-ethoxyresorufin (REE), is a validated substrate for both CYPs and was used in both assays. Cytochrome P450 oxidoreductase (POR) is the required reductase partner for CYPs, and was also overexpressed in these systems to improve catalytic efficiency and the resulting signal for the assay.
Cell lines were generated in the HEK293 T-Rex cell line. Following transfection, cells were selected with 500 μg/mL Zeocin, and 7.5 μg/mL Blasticidin to create a stable pool. Inducible expression of CYP and POR was confirmed by immunoblot. […] The lines were maintained with 250 μg/mL Zeocin and 7.5 μg/mL Blasticidin to ensure continued selective pressure.
Cell lines were seeded onto Geltrex coated 96-well plates at 40,000 cells/well, and grown overnight in DMEM media containing 1 μg/mL tetracycline. The media was then replaced with Opti-MEM supplemented with 2% FBS and 1 μg/mL tetracycline. Compounds were serially diluted in Opti-MEM supplemented with 2% FBS and 1 μg/mL tetracycline and an equal volume of compound added to the cells (n = 3). Following a 1 h incubation, resorufin ethyl ether (REE; for CYP1B1 and 1A1) or dibenzylfluorescein (DBF; for 19A1) was added to the cells for a total concentration of 5 μM for REE and 1 μM for DBF. […] Dose–response curves were generated in Prism and normalized using the no-compound control (set as 100% activity) and the no-cell control (set as 0% activity; this value in the raw data reflects the background fluorescence of the dye alone).
For the light-activated compounds, the experiment was modified as follows: Cells were seeded and grown overnight as described above. Media was replaced with L-15 containing 1 μg/mL tetracycline; L-15 media was used in place of opti-MEM™ to maintain CO2 outside the incubator, and to prevent cellular damage from light. Compounds were serially diluted in L-15 with 1 μg/mL tetracycline and added to the cells followed by a 1 h incubation. […] REE or DBF was added as described above.

[3] = format: physicochemical
Source text: Liver Weight Blood Flow Protein
(g/kg Body Weight) (mL/min/kg) (mg/g liver
Supplementary Table 7. Quantum yields of photosubstitution in different solvents.
Compound Φ(PS) 5% DMSO in H2Oa Φ(PS) Opti-MEMa Φ(PS) CH3OH […]
a Quantum yield for photosubstitution, ΦPS, in 5% DMSO in H2O and Opti-MEM, calculated by optical approach
(Fig. S8-10). b ΦPS in 5% DMSO in H2O, determined by HPLC approach. HPLC was used due to overlap in absorbance profiles for 6 and its photochemical product (Fig. S7).
Supplementary Table 8. Lipinski’s rule of five. […]
a log P was calculated by taking the logarithm of the ratio of the MLCT absorbance of each complex (4-6) in octanol to the corresponding absorbance in H2O.
1. Lameijer, L. N. et al. A Red-Light-Activated Ruthenium-Caged NAMPT Inhibitor Remains Phototoxic in Hypoxic Cancer Cells. Angew. Chem. Int. Ed. Engl. 56, 11549-11553,

SMILES: COc1ccc(/C=C/c2cc[n+]([Ru-4]345([n+]6ccccc6-c6cccc([n+]63)-c3cccc[n+]34)[n+]3c(cc(C(=O)[O-])c4ccccc43)-c3cc(C(=O)[O-])c4ccccc4[n+]35)cc2)c(OC)c1 [Compound 6]
- irradiation-induced 1O2 production (Singlet Oxygen Sensor Green signal, relative) [1]: 0.9896 and 0.937 and 1.032
- Kinetic solubility C average [2]: 36.9 µM
- Kinetic solubility C1 ([2]; replicate 1): 33.9 µM
- Kinetic solubility C2 ([2]; replicate 2): 38.5 µM
- Kinetic solubility C3 ([2]; replicate 3): 38.2 µM
- % Enzyme Activity red light (CYP1B1; Log Conc 0.39794): -2.704% and -2.565%
- % Enzyme Activity red light (CYP1B1; Log Conc 1): -2.451% and -1.971%
- % Enzyme Activity red light (CYP1B1; Log Conc -0.20412): -2.413% and -1.554%
- % Enzyme Activity red light (CYP1B1; Log Conc -0.80618): -1.314% and -2.085%
- % Enzyme Activity red light (CYP1B1; Log Conc -1.40824): -2.274% and -3.677%
- % Enzyme Activity red light (CYP1B1; Log Conc -2.0103): 1.567% and 0.556%
- % Enzyme Activity red light (CYP1B1; Log Conc -2.61236): 27.0407% and 26.6869%
- % Enzyme Activity red light (CYP1B1; Log Conc -3.21442): 48.2689% and 41.5972%
- % Enzyme Activity red light (CYP1B1; Log Conc -3.81648): 59.7422% and 63.5835%
- % Enzyme Activity red light (CYP1B1; Log Conc -4.41854): 78.0389% and 65.5042%
- % Enzyme Activity red light (CYP1B1; Log Conc -5.0206): 106.495% and 94.3139%
- % Enzyme Activity red light (CYP1B1; Log Conc -5.62266): 87.0104% and 112.181%
- % Enzyme Activity (CYP1B1; Log Conc 0.39794): 37.9328% and 31.3874%
- % Enzyme Activity (CYP1B1; Log Conc 1): -5.282% and -4.5489%
- % Enzyme Activity (CYP1B1; Log Conc -0.20412): 83.1691% and 81.3495%
- % Enzyme Activity (CYP1B1; Log Conc -0.80618): 99.722% and 104.043%
- % Enzyme Activity (CYP1B1; Log Conc -1.40824): 109.148% and 104.422%
- % Enzyme Activity (CYP1B1; Log Conc -2.0103): 132.424% and 133.005%
- % Enzyme Activity (CYP1B1; Log Conc -2.61236): 99.1913% and 124.791%
- % Enzyme Activity (CYP1B1; Log Conc -3.21442): 127.496% and 122.416%
- % Enzyme Activity (CYP1B1; Log Conc -3.81648): 106.293% and 106.621%
- % Enzyme Activity (CYP1B1; Log Conc -4.41854): 105.939% and 103.083%
- % Enzyme Activity (CYP1B1; Log Conc -5.0206): 100.606% and 105.459%
- % Enzyme Activity (CYP1B1; Log Conc -5.62266): 101.365% and 96.184%
- IC50 (CYP1B1; read-out: IC50 CYP1B1 Dark, Dark, conversion of 7-ethoxyresorufin (REE)): 1900 nM
- IC50 (CYP1B1; read-out: IC50 CYP1B1 Light, Light: 660 nm, 58.7 J/cm^2, REE): 0.3 nM
- log P [3]: 0.2
